Data taken from patent publication US20250152585A1, “PHARMACEUTICAL COMPOUND” (Duke Street Bio Limited, priority 2022, published 2025).
Where two headings read alike, the source gives them in different places.

Columns and labels:
[1] = molecular target: T1, full length N-terminally FLAG-tagged PARP1 (Homo sapiens, UniProt P09874); experiment: PARP1 probe displacement HTRF assay; conditions: for Kd: binned Kd, PARP1 probe displacement HTRF; for Selectivity: PARP1 over PARP2, ratio Kd (PARP2)/Kd (PARP1), probe displacement HTRF
[2] = molecular target: T1, full length N-terminally FLAG-tagged PARP1; experiment: PARP1 biochemical DELFIA assay (auto-PARylation); parameters: recombinant full length human N-terminally FLAG-tagged PARP1; conditions: binned IC50, PARP1 biochemical DELFIA assay
[3] = molecular target: T2, N-terminally FLAG-tagged PARP2 (amino acids 1-583) (Homo sapiens, UniProt Q9UGN5); experiment: PARP2 probe displacement HTRF assay; format: binding; conditions: binned Kd, PARP2 probe displacement HTRF
T2 construct: N-terminally FLAG-tagged PARP2 (amino acids 1-583)
Description: Data analysis was performed identical as for PARP1.

T2 sequence (Q9UGN5 whole entry, the tested form may be a part): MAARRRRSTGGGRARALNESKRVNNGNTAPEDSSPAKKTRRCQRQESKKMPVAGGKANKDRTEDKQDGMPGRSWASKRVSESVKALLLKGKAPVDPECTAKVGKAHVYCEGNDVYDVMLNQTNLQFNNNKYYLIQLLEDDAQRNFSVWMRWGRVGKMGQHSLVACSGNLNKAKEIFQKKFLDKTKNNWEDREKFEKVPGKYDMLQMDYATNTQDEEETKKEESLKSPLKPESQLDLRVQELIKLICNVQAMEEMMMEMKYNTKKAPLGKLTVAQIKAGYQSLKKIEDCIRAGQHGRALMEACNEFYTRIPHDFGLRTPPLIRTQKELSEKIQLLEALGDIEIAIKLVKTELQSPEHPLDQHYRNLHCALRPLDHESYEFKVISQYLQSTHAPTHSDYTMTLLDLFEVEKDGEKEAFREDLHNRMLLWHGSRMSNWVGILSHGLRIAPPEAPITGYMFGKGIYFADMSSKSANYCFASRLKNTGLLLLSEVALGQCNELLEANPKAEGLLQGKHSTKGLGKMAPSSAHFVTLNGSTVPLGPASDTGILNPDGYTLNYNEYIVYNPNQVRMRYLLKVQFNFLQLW
T1 sequence (P09874 whole entry): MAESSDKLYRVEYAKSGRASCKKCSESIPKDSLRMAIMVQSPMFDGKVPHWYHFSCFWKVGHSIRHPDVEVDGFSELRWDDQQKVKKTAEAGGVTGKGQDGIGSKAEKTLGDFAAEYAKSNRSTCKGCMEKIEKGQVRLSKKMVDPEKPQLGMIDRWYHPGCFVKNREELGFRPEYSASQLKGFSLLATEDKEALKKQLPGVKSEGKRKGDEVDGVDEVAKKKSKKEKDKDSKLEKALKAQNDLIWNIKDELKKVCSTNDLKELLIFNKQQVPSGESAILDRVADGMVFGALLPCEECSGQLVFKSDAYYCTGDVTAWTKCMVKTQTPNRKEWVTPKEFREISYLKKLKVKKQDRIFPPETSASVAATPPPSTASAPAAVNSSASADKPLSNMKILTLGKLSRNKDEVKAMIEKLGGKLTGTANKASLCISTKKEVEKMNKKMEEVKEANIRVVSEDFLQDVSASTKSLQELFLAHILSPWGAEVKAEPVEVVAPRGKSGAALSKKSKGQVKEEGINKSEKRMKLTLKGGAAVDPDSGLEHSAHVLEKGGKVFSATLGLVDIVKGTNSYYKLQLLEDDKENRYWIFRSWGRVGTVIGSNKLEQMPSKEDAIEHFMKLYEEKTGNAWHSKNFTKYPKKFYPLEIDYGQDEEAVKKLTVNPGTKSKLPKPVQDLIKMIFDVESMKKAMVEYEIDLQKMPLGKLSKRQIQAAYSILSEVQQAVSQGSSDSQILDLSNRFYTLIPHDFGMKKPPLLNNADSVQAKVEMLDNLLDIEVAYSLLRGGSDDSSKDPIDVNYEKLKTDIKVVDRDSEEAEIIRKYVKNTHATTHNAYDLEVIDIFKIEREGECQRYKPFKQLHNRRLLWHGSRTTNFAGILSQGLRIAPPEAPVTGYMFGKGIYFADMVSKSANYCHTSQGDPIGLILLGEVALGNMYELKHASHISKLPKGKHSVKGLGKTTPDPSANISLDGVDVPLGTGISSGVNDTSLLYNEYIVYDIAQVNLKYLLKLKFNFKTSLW

| SMILES | Kd ([1]; PARP1 HTRF) | Selectivity [1] | IC50 [2] | Kd [3] | Kd ([1]; read-out: PARP1 HTRF) |
| --- | --- | --- | --- | --- | --- |
| CNC(=O)c1ccc(N2CCC(N3CCC(c4cc5cccc(F)c5c(=O)[nH]4)C3)CC2)cn1 (single isomer, unassigned) [Compound 136a, 5-{4-[3-(8-fluoro-1-oxo-2H-isoquinolin-3-yl)pyrrolidin-1-yl]piperidin-1-yl}-N-methylpyridine-2-carboxamide] | < 10 nM | +++ (+++ indicate a value of at least 100) | < 10 nM | 100 to 1000 nM |  |
| CNC(=O)c1ccc(N2CCC(N3CCC(c4cc5c(Cl)cccc5c(=O)[nH]4)C3)CC2)cn1 (single isomer, unassigned) [Compound 137a] |  | +++ (+++ indicate a value of at least 100) | < 10 nM | 100 to 1000 nM | < 10 nM |
| CNC(=O)c1ccc(N2CCC(N3CCC(c4nc5ccccc5c(=O)[nH]4)C3)CC2)c(C(F)(F)F)n1 (single isomer, unassigned) [Compound 139a] |  | +++ (+++ indicate a value of at least 100) | < 10 nM | 1000 to 10000 nM | < 10 nM |
| CNC(=O)c1ccc(N2CCC(N3CCC(c4nc5ccccc5c(=O)[nH]4)C3)CC2)c(C(F)(F)F)n1 (single isomer, unassigned) [Compound 139b] |  | +++ (+++ indicate a value of at least 100) | 10 to 100 nM | 1000 to 10000 nM | 10 to 100 nM |
| CNC(=O)c1ccc(N2CCC(N3CCC(O)(c4nc5ccccc5c(=O)[nH]4)C3)CC2)cn1 (single isomer, unassigned) [Compound 140a] |  | ++ (++ indicates a value of 50 to less than 100) | 100 to 1000 nM | > 10000 nM | 10 to 100 nM |
| CNC(=O)c1ccc(N2CCC(N3CCC(O)(c4nc5ccccc5c(=O)[nH]4)C3)CC2)cn1 (single isomer, unassigned) [Compound 140b] |  | +++ (+++ indicate a value of at least 100) | 10 to 100 nM | 1000 to 10000 nM | 10 to 100 nM |
| CNC(=O)c1ccc(N2CC(N3CCCC(c4nc5ccccc5c(=O)[nH]4)CC3)C2)cn1 (single isomer, unassigned) [Compound 145a] |  | +++ (+++ indicate a value of at least 100) | < 10 nM | 1000 to 10000 nM | < 10 nM |
| CNC(=O)c1ccc(N2CC(N3CCCC(c4nc5ccccc5c(=O)[nH]4)CC3)C2)cn1 (single isomer, unassigned) [Compound 145b] |  | +++ (+++ indicate a value of at least 100) | < 10 nM | 1000 to 10000 nM | < 10 nM |
| CNC(=O)c1ccc(N2CCC(N3CCCC(c4nc5c(c(=O)[nH]4)CCCC5)C3)CC2)cn1 (single isomer, unassigned) [Compound 146a] |  | − (− indicates a value of less than 10) | 100 to 1000 nM | 1000 to 10000 nM | 100 to 1000 nM |
| CNC(=O)c1ccc(N2CCC(N3CCCC(c4nc5c(c(=O)[nH]4)CCCC5)C3)CC2)cn1 (single isomer, unassigned) [Compound 146b] |  | +++ (+++ indicate a value of at least 100) | 10 to 100 nM | > 10000 nM | 10 to 100 nM |
| CNC(=O)c1ccc(N2CCC(N3CCCC(c4ccc(OC)c(=O)[nH]4)C3)CC2)cn1 (single isomer, unassigned) [Compound 147a] |  | − (− indicates a value of less than 10) | 1000 to 10000 nM | > 10000 nM | 1000 to 10000 nM |
| CNC(=O)c1ccc(N2CCC(N3CCCC(c4ccc(OC)c(=O)[nH]4)C3)CC2)cn1 (single isomer, unassigned) [Compound 147b] |  | − (− indicates a value of less than 10) | 1000 to 10000 nM | > 10000 nM | 1000 to 10000 nM |
| CNC(=O)c1ccc(N2CCC(N3CCC(c4ccc(OC)c(=O)[nH]4)C3)CC2)cn1 (single isomer, unassigned) [Compound 148a] |  | − (− indicates a value of less than 10) | 1000 to 10000 nM | > 10000 nM | > 10000 nM |
| CNC(=O)c1ccc(N2CCC(N3CCC(c4ccc(OC)c(=O)[nH]4)C3)CC2)cn1 (single isomer, unassigned) [Compound 148b] |  | − (− indicates a value of less than 10) | 1000 to 10000 nM | > 10000 nM | 1000 to 10000 nM |
| CNC(=O)c1ccc(N2CCC(N3CCC(c4nc5onc(C)c5c(=O)[nH]4)C3)CC2)cn1 (single isomer, unassigned) [Compound 149a] |  | + (+ indicates a value of 10 to less than 50) | 100 to 1000 nM | > 10000 nM | 100 to 1000 nM |
| CNC(=O)c1ccc(N2CCC(N3CCC(c4nc5onc(C)c5c(=O)[nH]4)C3)CC2)cn1 (single isomer, unassigned) [Compound 149b] |  | − (− indicates a value of less than 10) | 1000 to 10000 nM | > 10000 nM | 1000 to 10000 nM |
| CCc1ccc(C2CCN(C3CCN(c4ccc(C(=O)NC)nc4F)CC3)C2)[nH]c1=O (single isomer, unassigned) [Compound 151b, 5-(4-(3-(5-ethyl-6-oxo-1,6-dihydropyridin-2-yl)pyrrolidin-1-yl)piperidin-1-yl)-6-fluoro-N-methylpicolinamide] |  | +++ (+++ indicate a value of at least 100) | < 10 nM | > 10000 nM | < 10 nM |
| CNC(=O)c1ccc(N2CCC(N3CCC(c4ccc(OC)c(=O)[nH]4)C3)CC2)c(C(F)(F)F)n1 (single isomer, unassigned) [Compound 152a] |  | +++ (+++ indicate a value of at least 100) | < 10 nM | 1000 to 10000 nM | < 10 nM |
| CNC(=O)c1ccc(N2CCC(N3CCC(c4ccc(OC)c(=O)[nH]4)C3)CC2)c(C(F)(F)F)n1 (single isomer, unassigned) [Compound 152b] |  | ++ (++ indicates a value of 50 to less than 100) | 10 to 100 nM | > 10000 nM | 10 to 100 nM |
| CNC(=O)c1ccc(N2CCC(N3CCC(c4cc5ccc(F)cc5c(=O)[nH]4)C3)CC2)cn1 (single isomer, unassigned) [Compound 154a, 5-(4-(3-(7-fluoro-1-oxo-1,2-dihydroisoquinolin-3-yl)pyrrolidin-1-yl)piperidin-1-yl)-N-methylpicolinamide] | < 10 nM | +++ (+++ indicate a value of at least 100) | < 10 nM | 100 to 1000 nM |  |
| CNC(=O)c1ccc(N2CCC(N3CCC(c4nc5c(c(=O)[nH]4)CCCC5)C3)CC2)cn1 (single isomer, unassigned) [Compound 155a] |  | + (+ indicates a value of 10 to less than 50) | 10 to 100 nM | 100 to 1000 nM | 10 to 100 nM |
| CNC(=O)c1ccc(N2CCC(N3CCC(c4nc5c(c(=O)[nH]4)CCCC5)C3)CC2)cn1 (single isomer, unassigned) [Compound 155b] |  | +++ (+++ indicate a value of at least 100) | < 10 nM | 100 to 1000 nM | < 10 nM |
| CNC(=O)c1ccc(N2CCC(N3CCC(c4nc5ccccc5c(=O)[nH]4)C3)CC2)c(C(F)F)n1 (single isomer, unassigned) [Compound 158a] |  | +++ (+++ indicate a value of at least 100) | < 10 nM | 1000 to 10000 nM | < 10 nM |
| CNC(=O)c1ccc(N2CCC(N3CCC(c4nc5ccccc5c(=O)[nH]4)C3)CC2)c(C(F)F)n1 (single isomer, unassigned) [Compound 158b] |  | +++ (+++ indicate a value of at least 100) | 10 to 100 nM | 1000 to 10000 nM | 10 to 100 nM |
| CNC(=O)c1ccc(N2CCC(N3CCCC(c4nc5onc(C)c5c(=O)[nH]4)C3)CC2)cn1 (single isomer, unassigned) [Compound 159a] |  | − (− indicates a value of less than 10) | > 10000 nM | > 10000 nM | > 10000 nM |
| CNC(=O)c1ccc(N2CCC(N3CCCC(c4nc5onc(C)c5c(=O)[nH]4)C3)CC2)cn1 (single isomer, unassigned) [Compound 159b] |  | + (+ indicates a value of 10 to less than 50) | 100 to 1000 nM | > 10000 nM | 100 to 1000 nM |
| CNC(=O)c1ccc(N2CCC(N3CCC(c4nc5ccc(C(F)(F)F)cc5c(=O)[nH]4)C3)CC2)cn1 (single isomer, unassigned) [Compound 161a] |  | − (− indicates a value of less than 10) | 100 to 1000 nM | > 10000 nM | 100 to 1000 nM |
| CNC(=O)c1ccc(N2CCC(N3CCC(c4nc5ccc(C(F)(F)F)cc5c(=O)[nH]4)C3)CC2)cn1 (single isomer, unassigned) [Compound 161b] |  | +++ (+++ indicate a value of at least 100) | < 10 nM | 1000 to 10000 nM | < 10 nM |
| CNC(=O)c1ccc(N2CCC(N3CCC(c4nc5[nH]nc(C(F)(F)F)c5c(=O)[nH]4)C3)CC2)cn1 (single isomer, unassigned) [Compound 162a, N-methyl-5-(4-(3-(4-oxo-3-(trifluoromethyl)-4,5-dihydro-1H-pyrazolo[3,4-d]pyrimidin-6-yl)pyrrolidin-1-yl)piperidin-1-yl)picolinamide] | 10 to 100 nM | − (− indicates a value of less than 10) | 10 to 100 nM | 100 to 1000 nM |  |
